Laboratory results taken from ChEMBL document CHEMBL1201862, “PubChem BioAssay data set” (2004).
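Values below derive from 48-hour exposures of cells grown in 96-well plates, with endpoints linearly interpolated between the two concentrations bracketing the appropriate inhibition level. GI50 is the concentration that inhibits growth by half.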 Activity calls are given as the source filed them. Rule as the data show it: active = GI50 up to about 1.1 µM and inactive = higher.

Experiments:
Assay in all cases: DTP human tumour cell line panel, 48 h
DLD-1 = tested on: DLD-1
DMS-114 = tested on: DMS-114
DMS-273 = tested on: DMS-273
HOP-18 = tested on: HOP-18
KM-20L2 = tested on: KM-20L2
LXFL 529 = tested on: LXFL 529
M19-MEL = tested on: M19-MEL
RXF 631 = tested on: RXF 631
XF498 = tested on: XF498

Measured: GI50

Cc1ccc(NC(=O)C2C(=O)N(c3ccc(C)c(C)c3)C(=O)C2N=N)cc1C (configuration not stated)
inactive: DLD-1 > 100 µM | DMS-114 61.5 µM | DMS-273 86.5 µM | HOP-18 > 100 µM | KM-20L2 > 100 µM | LXFL 529 > 100 µM | M19-MEL > 100 µM | RXF 631 > 100 µM | XF498 > 100 µM

O=[N+]([O-])[C@@H]1C2C=CC(C2)[C@H]1Cl (some centres not stated)
inactive: DLD-1 > 100 µM | DMS-114 > 100 µM | DMS-273 > 100 µM | HOP-18 > 100 µM | LXFL 529 > 100 µM | M19-MEL > 100 µM | RXF 631 > 100 µM | XF498 > 100 µM
